# Experimental data from patent publication US20090087845A1, “Genetic Markers Of True Low Birth Weight” (priority 2005, published 2009).
# “And” between values parts separate entries of the source, which are not always exact repeats. Identical values can stand only once.
# System: placental gene expression
# Test: Placental gene expression (Affymetrix Rat Genome Chip 230.2) after SSRI (fluoxetine) exposure throughout gestation
# Assay type: in vivo
# Conditions: SSRI exposure during gestation
# Protocol: Gene expression data from pregnant rats under different forms of dietary restriction was gathered. […] (N=8) • Group 2 (CR50): Rats Given 50% of their Normal Daily Intake of Food. (N=5) • Group 3 (CR70): Rats Given 70% of their Normal Daily Intake of Food. […] (N=6) Placentas from the rats of each Group were harvested on Day 21 of gestation. RNA was extracted and gene expression was measured based on hybridization of RNA to Affymetrix Rat Genome Chips™ (230.2) (Affymetrix, Santa Clara, Calif.).
# In order to determine whether placental gene expression profiling can be used to identify other prenatal exposures such as toxicants and drugs, a group of rats with drug exposure was monitored as described above. […] As with control, CR50, CR70, and HF groups, placentas from the mothers were sampled after 21 days of gestation and gene expression monitored utilizing an Affymetrix Rat Genome Chip.
smiles,measurement,value
"CNCCC(Oc1ccc(C(F)(F)F)cc1)c1ccccc1 (stereo not shown) [fluoxetine, Fluoxetine]",Probeset 1367856_at expression,9.227 and 9.529 and 9.365 and 9.385 and 9.39 and 9.762
same,Probeset 1367877_at expression,10.9 and 11 and 11.21 and 11.25 and 10.7225 and 10.35
same,Probeset 1368083_at expression,8.132 and 7.967 and 8.206 and 8.272 and 8.391 and 8.145
same,Probeset 1368824_at expression,8.826 and 8.855 and 9.531 and 9.13 and 8.806 and 9.976
same,Probeset 1369754_a_at expression,8.0392 and 8.245 and 7.92 and 7.959 and 8 and 8.033
same,Probeset 1369775_at expression,8.114 and 8.469 and 8.777 and 8.329 and 7.897 and 9.185
same,Probeset 1370293_at expression,5.003 and 5.146 and 4.947 and 4.866 and 4.888 and 5.155
same,Probeset 1370317_at expression,8.087 and 8.102 and 8.255 and 8.308 and 8.15 and 8.491
same,Probeset 1370521_at expression,8.446 and 8.335 and 8.321 and 8.443 and 8.486 and 8.352
same,Probeset 1370682_at expression,5.234 and 5.326 and 5.095 and 5.171 and 5.242 and 5.482
same,Probeset 1370766_at expression,4.942 and 4.938 and 5.166 and 5.489 and 5.322 and 4.712
same,Probeset 1370918_a_at expression,11.31 and 11.2792 and 11.25 and 11.37 and 11.45 and 11.49
same,Probeset 1370983_at expression,5.843
same,Probeset 1371435_at expression,11.01 and 10.91 and 11.23 and 11.08 and 10.99 and 11.27
same,Probeset 1372141_at expression,9.139 and 9.134 and 9.292 and 9.347 and 9.239 and 9.295
same,Probeset 1373319_at expression,9.055 and 9.237 and 9.183 and 9.332 and 9.182 and 9.352
same,Probeset 1373396_at expression,9.155 and 8.864 and 9.203 and 9.102 and 8.933 and 8.366
same,Probeset 1373572_at expression,7.868 and 7.822 and 7.63 and 7.991 and 8.104 and 8.161
same,Probeset 1373647_at expression,8.371 and 8.23 and 8.672 and 8.447 and 8.268 and 8.235
same,Probeset 1373702_at expression,8.332 and 8.305 and 8.162 and 8.514 and 8.322 and 7.814
same,Probeset 1373804_at expression,6.825 (2×) and 6.702 and 7.208 and 7.238 and 7.527
same,Probeset 1374112_at expression,6.448 and 6.479 and 6.686 and 6.529 and 6.5 and 6.601
same,Probeset 1374739_at expression,8.91 and 8.84 and 9.07 and 9.074 and 8.858 and 8.669
same,Probeset 1375178_at expression,5.861 and 5.694 and 5.836 and 5.574 and 5.873 and 5.942
same,Probeset 1375407_at expression,4.147 and 4.198 and 4.162 and 4.179 and 4.18 and 4.21
same,Probeset 1376294_at expression,8.241 and 8.136 and 8.122 and 8.206 and 8.031 and 7.939
same,Probeset 1376622_at expression,9.179 and 9.106 and 9.158 and 9.007 and 8.828 and 8.85
same,Probeset 1376661_at expression,9.243 and 8.93 and 9.166 and 9.213 and 9.04 and 8.674
same,Probeset 1377210_at expression,5.248 and 4.863 and 5.701 and 5.485 and 5.015 and 5.172
same,Probeset 1377365_at expression,4.943 and 5.014 and 4.818 and 5.177 and 5.084 and 4.987
same,Probeset 1377621_at expression,9.058 and 9.148 and 9.272 and 8.936 and 8.844 and 9.114
same,Probeset 1377746_at expression,6.748 and 6.563 and 6.855 and 6.829 and 6.772 and 6.746
same,Probeset 1378200_at expression,3.497 and 3.656 and 3.453 and 3.611 and 3.537 and 3.653
same,Probeset 1378318_at expression,7.345 and 7.18 and 7.153 and 7.373 and 7.289 and 7.671
same,Probeset 1378906_at expression,4.061 and 4.197 and 4.196 and 4.263 and 4.048 and 4.099
same,Probeset 1378992_at expression,3.715 and 3.63 and 3.611 and 3.744 and 3.567 and 3.655
same,Probeset 1379691_at expression,5.195 and 5.15 and 5.65 and 5.355 and 5.021 and 5.425
same,Probeset 1379822_at expression,4.426 and 4.487 and 4.337 and 4.483 and 4.602 and 4.654
same,Probeset 1379827_at expression,7.363 and 6.823 and 7.052 and 7.077 and 7.08 and 7.626
same,Probeset 1379963_at expression,6.946 and 6.646 and 6.73 and 6.72 and 6.71 and 6.95
same,Probeset 1380175_at expression,5.161 (2×) and 4.962 and 5.291 and 5.16 and 5.03
same,Probeset 1380454_at expression,6.241 and 5.984 and 6.009 and 5.948 and 5.974 and 6.055
same,Probeset 1380887_at expression,4.924
same,Probeset 1381074_at expression,4.46 and 4.412
same,Probeset 1381130_at expression,3.907 and 4.131 and 4.062 and 4.007 and 3.997 and 4.159
same,Probeset 1381286_at expression,5.782 and 5.606 and 5.685 and 5.499 and 5.475 and 5.605
same,Probeset 1381456_at expression,5.51 and 5.294 and 5.392 and 5.362 and 5.479 and 5.538
same,Probeset 1381492_at expression,3.395 and 3.359 and 3.315 and 3.411 and 3.371 and 3.465
same,Probeset 1381950_at expression,3.272 and 3.248 and 3.336 and 3.304 and 3.319 and 3.328
same,Probeset 1382156_at expression,4.657 and 4.812 and 4.826 and 4.712 and 4.874 and 4.952
same,Probeset 1382513_at expression,6.674 and 6.665 and 6.481 and 6.607 and 6.737 and 6.659
same,Probeset 1382670_at expression,8.608 and 8.307 and 8.399 and 8.688 and 8.346 and 8.2197
same,Probeset 1383054_at expression,8.808 and 9.017 and 9.07 and 8.991 and 8.711 and 9.326
same,Probeset 1383300_at expression,8.006 and 8.007 and 8.362 and 8.2749 and 8.022 and 8.359
same,Probeset 1383309_at expression,8.849 and 8.69 and 8.969 and 8.891 and 8.934 and 8.618
same,Probeset 1383329_at expression,5.895 and 5.614 and 5.92 and 5.669 and 5.593 and 5.826
same,Probeset 1383443_at expression,5.684 and 5.567 and 5.755 and 5.468 and 5.752 and 5.677
same,Probeset 1383599_at expression,8.081 and 7.626 and 7.843 and 7.829 and 8.127 and 9.642
same,Probeset 1383670_at expression,6.71 and 6.607 and 6.621 and 6.709 and 6.712 and 7.383
same,Probeset 1384367_at expression,5.722 and 5.628 and 5.604 and 6.025 and 5.735 and 5.669
same,Probeset 1384528_at expression,6.295 and 6.64 and 6.851 and 6.656 and 6.5 and 7.042
same,Probeset 1384573_at expression,8.901 and 8.97 and 9.056 and 9.081 and 8.766 and 9.188
same,Probeset 1384849_at expression,4.389 and 4.321 and 4.282 and 4.323 and 4.508 and 4.489
same,Probeset 1385074_at expression,5.671 and 5.563 and 5.768 and 5.526 and 5.195 and 5.636
same,Probeset 1385113_at expression,7.347 and 7.428 and 7.301 and 7.161 and 7.417 and 7.088
same,Probeset 1385137_at expression,6.487 and 6.691 and 6.525 and 6.507 and 6.657 and 6.515
same,Probeset 1385290_at expression,5.912 and 5.666 and 5.934 and 5.765 and 5.855 and 6.05
same,Probeset 1385386_at expression,3.88 and 3.887 and 3.724 and 3.939 and 3.964 and 3.997
same,Probeset 1385391_at expression,3.906
same,Probeset 1385676_at expression,7.767 and 7.784 and 7.6 and 7.923 and 7.825 and 7.957
same,Probeset 1385790_at expression,8.874 and 8.703 and 8.936 and 8.711 and 8.797 and 8.832
same,Probeset 1385967_at expression,7.8281 and 7.604 and 7.783 and 7.853 and 7.739 and 7.587
same,Probeset 1386125_at expression,6.722 and 6.815 and 6.394 and 6.647 and 6.915 and 6.555
same,Probeset 1387136_at expression,6.858 and 6.879 and 6.716 and 6.836 and 6.917 and 6.91
same,Probeset 1387693_a_at expression,6.346 and 5.564 and 5.898 and 6.298 and 6.19 and 6.092
same,Probeset 1387694_at expression,4.568 (2×) and 4.709 and 4.717 and 4.669 and 4.592
same,Probeset 1387822_at expression,6.542 and 6.446 and 6.117 and 6.626 and 6.634 and 6.309
same,Probeset 1387836_at expression,6.084 and 6.195 and 5.76 and 6.333 and 6.223 and 6.427
same,Probeset 1387914_at expression,7.114 and 7.095 and 6.97 and 7.203 and 7.171 and 6.743
same,Probeset 1388091_at expression,4.883 and 4.896 and 4.86 and 4.66 and 4.763 and 5.101
same,Probeset 1388131_at expression,5.883 and 5.853 (2×) and 5.899 and 5.7 and 5.653
same,Probeset 1388363_at expression,8.334 and 8.137 and 8.387 and 8.484 and 8.155 and 8.23
same,Probeset 1388396_at expression,8.583 and 8.468 and 8.633 and 8.876 and 8.642 and 8.158
same,Probeset 1388669_at expression,7.593 and 7.653 and 7.716 and 7.739 and 7.557 and 7.506
same,Probeset 1389095_at expression,4.796 and 4.404 and 4.732 and 4.907 and 5.027 and 4.473
same,Probeset 1389213_at expression,8.131 and 8.028 and 7.745 and 7.914 and 8.246 and 8.135
same,Probeset 1389599_at expression,7.15 and 6.872 and 6.834 and 7.063 and 7.294 and 6.817
same,Probeset 1389938_at expression,3.471 and 3.408 and 3.488 and 3.5 and 3.516 and 3.49
same,Probeset 1390406_at expression,10.34 and 10.3557 and 10.5 and 10.19 and 10.46 and 10.31
same,Probeset 1390477_at expression,5.455 and 5.297 and 5.408 and 5.153 and 5.575 and 5.333
same,Probeset 1390592_at expression,7.922 and 8.042 and 8.388 and 8.1 and 7.908 and 8.783
same,Probeset 1390603_at expression,7.171 and 7.008 and 7.6 and 6.976 and 7.243 and 7.286
same,Probeset 1390649_at expression,7.938 and 7.688 and 7.673 and 7.791 and 7.858 and 7.491
same,Probeset 1390892_at expression,5.596 and 5.604 and 5.507 and 5.408 and 5.571 and 5.5082
same,Probeset 1391078_at expression,8.106 and 8.271 and 8.74 and 8.604 and 8.221 and 9.079
same,Probeset 1391283_at expression,5.834 and 5.874 and 5.96 and 5.702 and 5.598 and 5.898
same,Probeset 1391376_at expression,7.65 and 7.982 and 7.683 and 7.518 and 7.491 and 7.602
